Test results taken from patent US12636250B2, “Microneedle array patches (MAPs), systems, and methods for manufacturing and using same” (Terrestrial Bio, Inc., priority 2024, dated 2026).
Entries after “also recorded” stand apart in the source; their conditions may differ.

Key:
[1] = Mold dissection for tip length and shell length (RTM-209); assay type: physicochemical; conditions: comparison between GLP-1 tip formulations
Method: Mold Dissection for Tip Length (RTM-209): The mold dissection method uses magnified images of sectioned molds to obtain measurements and morphology of the dried tips in the molds. After tip printing and drying, a mold is cross-sectioned with a razor blade in between rows of needles. The dried tips are imaged within the needle cavities using a microscope. The tip overall length and shell length are measured by image processing. The image scale is calibrated using a stage micrometer, and lengths in micrometers are calculated from the lengths measured in pixels. The shell length as a portion of overall length is an indication of consolidation. Minimal shell length, corresponding to maximum consolidation, is preferred.

[2] = Microneedle mechanical strength, Instron compression (crush) test (TM-404); assay type: physicochemical; conditions: for Tip strength (comparison in words): comparison between GLP-1 tip formulations

Structure (SMILES) | Tip length / shell length / Tip consolidation (comparison in words) [1] | strength per needle ([2]; GLP-086, higher (3%) concentration of Proline vs feasibility (control) formulation) [N/needle] | Tip strength (comparison in words) [2]
O=C(O)[C@@H]1CCCN1 [Proline] | did improve Tip consolidation | > 0.6 | significantly improves the mechanical strength of GLP-1 containing needles
Cl.NC(CO)(CO)CO [Tris-HCl] | comparable to MOPS in terms of Tip length and strength |  | comparable to MOPS in terms of Tip length and strength
[Cl-].[Na+] [NaCl] | led to better consolidation of the Tips; also recorded: significantly reduced the shell length and improved the % consolidation of the Tip |  | comparable
[Cl-].[Cl-].[Mg+2] [MgCl2] | also improved Tip consolidation |  | 
